The assay has as its system C57BL/6 mice. Nature of the assay: animal or person. It counts as in vivo. The note with it: Mus musculus, sc, 0.5 h, s.c. administration, 30 min, 55° C. water, read-out: ED50 (mg/kg) at 30 min on C57BL/6 mice in Warm-water Tail-flick Test.

For the compound `CC(=O)Nc1ccc(CN2CCC(CCc3ccccc3)(C3CCCCO3)CC2)cc1` (centres unmarked) [Compound 70, N-(4-((4-phenethyl-4-(tetrahydro-2H-pyran-2-yl)piperidin-1-yl)methyl)phenyl)acetamide], the ED50 was greater than 10 mg/kg. Consider `CC(=O)Nc1ccc(CN2CCCC(/C=C/c3ccccc3)(c3ccccn3)C2)cc1` (centres unmarked) [Compound 71, (E)-N-(4-((3-(pyridin-2-yl)-3-styrylpiperidin-1-yl)methyl)phenyl)acetamide], for which the ED50 was greater than 10 mg/kg. On to `COCC1(CCc2ccccc2)CCN(Cc2ccc(NC(C)=O)cc2)CC1` [Compound 72, N-(4-((4-(methoxymethyl)-4-phenethylpiperidin-1-yl)methyl)phenyl)acetamide], for which the ED50 is greater than 10 mg/kg. In the case of `CC(=O)Nc1ccc(CN2CCC(CCc3ccccc3)(C3CC=CCO3)CC2)cc1` (centres unmarked) [Compound 73, N-(4-((4-(3,6-dihydro-2H-pyran-2-yl)-4-phenethylpiperidin-1-yl)methyl)phenyl)acetamide] it was greater than 10 mg/kg; in that of `CC(=O)Nc1ccc(CN2CCC(CCc3ccccc3)(C3C=CCO3)CC2)cc1` (centres unmarked) [Compound 74, N-(4-((4-(2,5-dihydrofuian-2-yl)-4-phenethylpiperidin-1-yl)methyl)phenyl)acetamide], less than 10 mg/kg; in that of `COC1(CCc2ccccc2)CCN(Cc2ccc(NC(C)=O)cc2)CC1` [Compound 75, N-(4-((4-methoxy-4-phenethylpiperidin-1-yl)methyl)phenyl)acetamide], greater than 10 mg/kg. On to `COCCC1(CCc2ccccc2)CCN(Cc2ccc(NC(C)=O)cc2)CC1.Cl` [Compound 76, N-(4-((4-(2-methoxyethyl)-4-phenethylpiperidin-1-yl)methyl)phenyl)acetamide HCl], for which the ED50 is greater than 10 mg/kg. For the compound `CCOC(=O)NCC1(CCc2ccccc2)CCN(Cc2ccc(NC(C)=O)cc2)CC1` [Compound 77, ethyl (1-(4-acetamidobenzyl)-4-phenethylpiperidin-4-yl)methylcarbamate], the ED50 is greater than 10 mg/kg.

On to `CCOCC1(CCc2ccccc2)CCN(Cc2ccccc2)CC1` [Compound 78, 1-benzyl-4-(ethoxymethyl)-4-phenethylpiperidine], for which the ED50 was greater than 10 mg/kg.

`CCOCC1(CCc2ccccc2)CCN(C)CC1` [Compound 79, 4-(ethoxymethyl)-1-methyl-4-phenethylpiperidine]: the ED50 is greater than 10 mg/kg. Turning to `C=CCN1CCC(CCc2ccccc2)(COCC)CC1` [Compound 80, 1-allyl-4-(ethoxymethyl)-4-phenethylpiperidine], the ED50 was greater than 10 mg/kg. Then `CCOCC1(CCc2ccccc2)CCN(Cc2ccc(NC(=O)CC)cc2)CC1` [Compound 81, N-(4-((4-(ethoxymethyl)-4-phenethylpiperidin-1-yl)methyl)phenyl)pro-pionamide], with greater than 10 mg/kg; and `CCCCC(=O)Nc1ccc(CN2CCC(CCc3ccccc3)(COCC)CC2)cc1` [Compound 82, N-(4-((4-(ethoxymethyl)-4-phenethylpiperidin-1-yl)methyl)phenyl)pen-tanamide], with greater than 10 mg/kg; and `CCOCC1(CCc2ccccc2)CCN(Cc2ccc(NC(N)=O)cc2)CC1` [Compound 83, 1-(4-((4-(ethoxymethyl)-4-phenethylpiperidin-1-yl)methyl)phenyl)urea], with greater than 10 mg/kg.

`CCOCC1(CCc2ccccc2)CCN(Cc2ccc(NC(C)=O)c(F)c2)CC1` [Compound 84, N-(4-((4-(ethoxymethyl)-4-phenethylpiperidin-1-yl)methyl)-2-fluorophenyl)acetamide]: the ED50 is greater than 10 mg/kg. Then `CCOCC1(CCc2ccccc2)CCN(Cc2ccc(NC(C)=O)cc2F)CC1` [Compound 85, N-(4-((4-(ethoxymethyl)-4-phenethylpiperidin-1-yl)methyl)-3-fluorophenyl)acetamide], with greater than 10 mg/kg.

`CCOCC1(CCc2ccccc2)CCN(Cc2ccc(NC(C)=O)s2)CC1.Cl` [Compound 86, N-(5-((4-(ethoxymethyl)-4-phenethylpiperidin-1-yl)methyl)thiophen-2-yl)acetamide HCl]: the ED50 is greater than 10 mg/kg. Then `CCOCC1(CCc2ccccc2)CCN(Cc2cnc(NC(C)=O)s2)CC1` [Compound 87, N-(5-((4-(ethoxymethyl)-4-phenethylpiperidin-1-yl)methyl)thiazol-2-yl)acetamide], with greater than 10 mg/kg; and `CCOCC1(CCc2ccccc2)CCN(Cc2ccc(NCC(F)(F)F)cc2)CC1` [Compound 88, 4-((4-(ethoxymethyl)-4-phenethylpiperidin-1-yl)methyl)-N-(2,2,2-trifluoroethyl)aniline], with greater than 10 mg/kg; and `CCOCC1(CCc2ccccc2)CCN(Cc2ccc(C(N)=O)cc2)CC1` [Compound 89, 4-((4-(ethoxymethyl)-4-phenethylpiperidin-1-yl)methyl)benzamide], with greater than 10 mg/kg. In the case of `CCOCC1(CCc2ccccc2)CCN(Cc2ccc(C(=O)NC)cc2)CC1` [Compound 90, 4-((4-(ethoxymethyl)-4-phenethylpiperidin-1-yl)methyl)-N-methylbenzamide] it was greater than 10 mg/kg; in that of `CC(=O)Nc1ccc(CN2CCC(CCc3ccccc3)(C3CCO3)CC2)cc1` (centres unmarked) [Compound 91, N-(4-((4-(oxetan-2-yl)-4-phenethylpiperidin-1-yl)methyl)phenyl)acetamide], less than 10 mg/kg. In the case of `CCOCC1(CCc2ccccc2)CCN(Cc2ccc(NC(C)=O)cn2)CC1` [Compound 92, N-(6-((4-(ethoxymethyl)-4-phenethylpiperidin-1-yl)methyl)pyridin-3-yl)acetamide] it was greater than 10 mg/kg; in that of `CCCOCC1(CCc2ccccc2)CCN(Cc2ccc(NC(C)=O)cc2)CC1` [Compound 93, N-(4-((4-phenethyl-4-(propoxy-methyl)piperidin-1-yl)methyl)phenyl)acetamide], greater than 10 mg/kg. For `CC(=O)Nc1ccc(CN2CCC(CCc3ccccc3)(C3CO3)CC2)cc1` (centres unmarked) [Compound 94, N-(4-((4-(oxiran-2-yl)-4-phenethylpiperidin-1-yl)methyl)phenyl)acetamide], the ED50 is greater than 10 mg/kg. In the case of `CCOCC1(CCc2ccccc2)CCN(Cc2ccc(NC(=O)C(C)C)cc2)CC1` [Compound 95, N-(4-((4-(ethoxymethyl)-4-phenethylpiperidin-1-yl)methyl)phenyl)iso-butyramide] it was greater than 10 mg/kg. On to `CCOCC1(CCc2ccccc2)CCN(Cc2ccc(NC(C)=O)cc2)C1` (centres unmarked) [Compound 96, N-(4-((3-(ethoxymethyl)-3-phenethylpyrrolidin-1-yl)methyl)phenyl)acetamide], for which the ED50 was less than 10 mg/kg. In the case of `CCOCC1(CCc2ccccc2)CN(Cc2ccc(NC(C)=O)cc2)C1.Cl` [Compound 97, N-(4-((3-(ethoxymethyl)-3-phenethylazetidin-1-yl)methyl)phenyl)acetamide HCl] it was greater than 10 mg/kg; in that of `CCOCC1(CCc2ccccc2)CCCN(Cc2ccc(NC(C)=O)cc2)CC1` (centres unmarked) [Compound 98, N-(4-((4-(ethoxymethyl)-4-phenethylazepan-1-yl)methyl)phenyl)acetamide], greater than 10 mg/kg; in that of `CCOCC1(CCc2ccccc2)CN(CCc2ccc(NC(C)=O)cc2)C1` [Compound 99, N-(4-(2-(3-(ethoxymethyl)-3-phenethylazetidin-1-yl)ethyl)phenyl)acetamide], greater than 10 mg/kg. Then `C=CCCC1(COCC)CCN(Cc2ccc(NC(C)=O)cc2)CC1` [Compound 100, N-(4-((4-(but-3-enyl)-4-(ethoxymethyl)piperidin-1-yl)methyl)phenyl)acetamide], with greater than 10 mg/kg; and `CCOCC1(CCC2CC2)CCN(Cc2ccc(NC(C)=O)cc2)CC1` [Compound 101, N-(4-((4-(2-cyclopropylethyl)-4-(ethoxymethyl)piperidin-1-yl)methyl)phenyl)acetamide], with greater than 10 mg/kg.

For the compound `CCOCC1(CCc2cccs2)CCN(Cc2ccc(NC(C)=O)cc2)CC1.Cl` [Compound 102, N-(4-((4-(ethoxymethyl)-4-(2-(thiophen-2-yl)ethyl)piperidin-1-yl)methyl)phenyl)acetamide HCl], the ED50 was less than 10 mg/kg. Turning to `CCOCC1(CCc2nccs2)CCN(Cc2ccc(NC(C)=O)cc2)CC1.Cl` [Compound 103, N-(4-((4-(ethoxymethyl)-4-(2-(thiazol-2-yl)ethyl)piperidin-1-yl)methyl)phenyl)acetamide HCl], the ED50 was greater than 10 mg/kg. As for `CCOCC1(CCc2ccc(F)cc2)CCN(Cc2ccc(NC(C)=O)cc2)CC1` [Compound 104, N-(4-((4-(ethoxymethyl)-4-(4-fluoro-phenethyl)piperidin-1-yl)methyl)phenyl)acetamide], the ED50 was greater than 10 mg/kg. In the case of `CCOCC1(CCc2ccc(O)cc2)CCN(Cc2ccc(NC(C)=O)cc2)CC1.Cl` [Compound 105, N-(4-((4-(ethoxymethyl)-4-(4-hydroxy-phenethyl)piperidin-1-yl)methyl)phenyl)acetamide HCl] it was greater than 10 mg/kg; in that of `CCOCC1(CCc2ccc(OC)cc2)CCN(Cc2ccc(NC(C)=O)cc2)CC1.Cl` [Compound 106, N-(4-((4-(ethoxymethyl)-4-(4-methoxy-phenethyl)piperidin-1-yl)methyl)phenyl)acetamide HCl], greater than 10 mg/kg. Regarding `CC(=O)Nc1ccc(CN2CCC(CCc3ccccc3)(COC(F)F)CC2)cc1` [Compound 107, N-(4-((4-((difluoro-methoxy)methyl)-4-phenethylpiperidin-1-yl)methyl)phenyl)acetamide], the ED50 is greater than 10 mg/kg.

In the case of `CCOCC1(CCc2ccccc2)CCN(Cc2ccc3[nH]c(=O)[nH]c3c2)CC1` [Compound 108, 5-((4-(ethoxymethyl)-4-phenethylpiperidin-1-yl)methyl)-1H-benzo[d]imidazol-2(3H)-one], the ED50 was greater than 10 mg/kg. On to `CCOCC1(CCc2ccccc2)CCN(Cc2ccc3c(c2)CC(=O)N3)CC1` [Compound 109, 5-((4-(ethoxymethyl)-4-phenethylpiperidin-1-yl)methyl)indolin-2-one], for which the ED50 is greater than 10 mg/kg. In the case of `CCOCC1(CCc2ccccc2)CCN(Cc2ccc3[nH]ccc3c2)CC1` [Compound 110, 5-((4-(ethoxymethyl)-4-phenethylpiperidin-1-yl)methyl)-1H-indole] it was greater than 10 mg/kg.

For the origin of these results see patent US11584765B2 (priority 2017, dated 2023).
